“And” between values parts separate entries of the source, which are not always exact repeats. Equal values may be shown once. Toxic doses and inconclusive results are not listed.
System: P388 leukemia ip, CD2F1 mice, survival T/C
Assay: NCI In Vivo Anticancer Drug Screen. Data for tumor model P388 Leukemia (intraperitoneal) in CD2F1 (CDF1) mice
Conditions: endpoint: median survival time, higher = longer survival
Summary of the method: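 Mice carrying the transplanted tumor received test compound or vehicle. Survival was recorded in each group, and the value is the treated-group measurement divided by that of the vehicle-treated control group.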

[1] = dose: 50.0 mg/kg/injection, schedule: Q01DX005 (ip), vehicle: saline with Tween-80
[2] = dose: 100.0 mg/kg/injection, schedule: Q01DX005 (ip), vehicle: saline with Tween-80
[3] = dose: 50.0 mg/kg/injection, schedule: Q01DX009 (ip), vehicle: saline with Tween-80
[4] = dose: 100.0 mg/kg/injection, schedule: Q01DX009 (ip), vehicle: saline with Tween-80
[5] = dose: 100.0 mg/kg/injection, schedule: Q04DX002 (ip), vehicle: Klucel (hydroxypropylcellulose) (HPC)
[6] = dose: 200.0 mg/kg/injection, schedule: Q04DX002 (ip), vehicle: Klucel (hydroxypropylcellulose) (HPC)
[7] = dose: 400.0 mg/kg/injection, schedule: Q04DX002 (ip), vehicle: Klucel (hydroxypropylcellulose) (HPC)
[8] = dose: 60.0 mg/kg/injection, schedule: Q01DX005 (ip), vehicle: saline with Tween-80
[9] = dose: 120.0 mg/kg/injection, schedule: Q01DX005 (ip), vehicle: saline with Tween-80
[10] = dose: 240.0 mg/kg/injection, schedule: Q01DX005 (ip), vehicle: saline with Tween-80

## CCn1c2c(c3ccccc3c1=O)C(=O)c1ccccc1-2
[1]
  T/C: 103 % of control
[2]
  T/C: 103 % of control
dose: 200.0 mg/kg/injection, schedule: Q01DX005 (ip), vehicle: saline with Tween-80
  T/C: 94 % of control

## O=C1c2ccccc2-c2nc3ncccc3cc21
dose: 100.0 mg/kg/injection, schedule: Q04DX003 (ip), vehicle: saline with Tween-80
  T/C: 98 % of control
dose: 200.0 mg/kg/injection, schedule: Q04DX003 (ip), vehicle: saline with Tween-80
  T/C: 102 % of control
dose: 400.0 mg/kg/injection, schedule: Q04DX003 (ip), vehicle: saline with Tween-80
  T/C: 102 % of control

## O=C(O)c1cccnn1
[3]
  T/C: 90 % of control
[4]
  T/C: 90 % of control

## C=[CH][Pb]([CH]=C)([CH]=C)[O]C(C)=O
dose: 1.25 mg/kg/injection, schedule: Q01DX009 (ip), vehicle: saline with Tween-80
  T/C: 110 % of control and 111 % of control
dose: 2.5 mg/kg/injection, schedule: Q01DX009 (ip), vehicle: saline with Tween-80
  T/C: 160 % of control
dose: 5.0 mg/kg/injection, schedule: Q01DX009 (ip), vehicle: saline with Tween-80
  T/C: 151 % of control and 188 % of control

## CN=C(N)N/N=C/c1c2ccccc2c(C)c2ccccc12
dose: 25.0 mg/kg/injection, schedule: Q04DX002 (ip), vehicle: saline
  T/C: 119 % of control
dose: 50.0 mg/kg/injection, schedule: Q04DX002 (ip), vehicle: saline
  T/C: 115 % of control

## CS(C)(=O)=Nc1ccc(I)cc1
dose: 50.0 mg/kg/injection, schedule: Q04DX002 (ip), vehicle: Klucel (hydroxypropylcellulose) (HPC)
  T/C: 105 % of control
[5]
  T/C: 102 % of control and 104 % of control and 105 % of control
dose: 100.0 mg/kg/injection, schedule: Q04DX003 (ip), vehicle: saline
  T/C: 98 % of control
[6]
  T/C: 101 % of control and 113 % of control and 119 % of control
dose: 200.0 mg/kg/injection, schedule: Q04DX003 (ip), vehicle: saline
  T/C: 100 % of control
[7]
  T/C: 101 % of control and 105 % of control and 120 % of control
dose: 400.0 mg/kg/injection, schedule: Q04DX003 (ip), vehicle: saline
  T/C: 94 % of control

## C=COC(=O)C(Cc1ccc([N+](=O)[O-])cc1)NC(=O)OCc1ccccc1 (stereo unspecified)
[5]
  T/C: 97 % of control
[6]
  T/C: 100 % of control
[7]
  T/C: 92 % of control

## Cc1ccc(S(=O)(=O)OC(=C(F)F)[Si](C)(C)C)cc1
[3]
  T/C: 102 % of control
[4]
  T/C: 94 % of control

## COc1ccc(C(=O)CC2(O)C(=O)Nc3ccccc32)cc1O (stereo unspecified)
[8]
  T/C: 105 % of control
[9]
  T/C: 102 % of control
[10]
  T/C: 102 % of control

## CC(C)(C)c1cc(-c2cc(C(C)(C)C)nc(N)n2)nc(N)n1
dose: 60.0 mg/kg/injection, schedule: Q01DX005 (ip), vehicle: saline
  T/C: 87 % of control
dose: 120.0 mg/kg/injection, schedule: Q01DX005 (ip), vehicle: saline
  T/C: 105 % of control

## CCCCCCNc1nc(NCCCCCC)c2[nH]c(NCCCCCC)nc2n1
[1]
  T/C: 122 % of control

## CC(C)(NC(=O)OC12CC3CC(CC(C3)C1)C2)C(=O)O
[8]
  T/C: 109 % of control
[9]
  T/C: 104 % of control
[10]
  T/C: 98 % of control

## CCN(CC)C(=S)SCc1cc(C)c(O)c(C)c1
dose: 100.0 mg/kg/injection, schedule: Q01DX001 (ip), vehicle: saline
  T/C: 98 % of control
dose: 200.0 mg/kg/injection, schedule: Q01DX001 (ip), vehicle: saline
  T/C: 100 % of control
dose: 400.0 mg/kg/injection, schedule: Q01DX001 (ip), vehicle: saline
  T/C: 100 % of control

## O=C(CC(C(=O)c1ccccc1)N1CC1)c1ccccc1 (stereo unspecified)
dose: 6.25 mg/kg/injection, schedule: Q01DX009 (ip), vehicle: saline with Tween-80
  T/C: 95 % of control
dose: 12.5 mg/kg/injection, schedule: Q01DX009 (ip), vehicle: saline with Tween-80
  T/C: 100 % of control
dose: 25.0 mg/kg/injection, schedule: Q01DX009 (ip), vehicle: saline with Tween-80
  T/C: 100 % of control and 87 % of control
[3]
  T/C: 116 % of control
[4]
  T/C: 91 % of control

## C[N+]1(C)C2CCC1CC(=O)C2
dose: 12.5 mg/kg/injection, schedule: Q01DX009 (ip), vehicle: suspension in saline
  T/C: 107 % of control
dose: 25.0 mg/kg/injection, schedule: Q01DX009 (ip), vehicle: suspension in saline
  T/C: 107 % of control

## Oc1ccccc1C=NCCC[OH2+].Oc1ccccc1C=NCCC[OH2+].[Cu].[Cu]
dose: 25.0 mg/kg/injection, schedule: Q01DX005 (ip), vehicle: saline with Tween-80
  T/C: 103 % of control
[1]
  T/C: 100 % of control and 102 % of control and 104 % of control
[2]
  T/C: 109 % of control

## O=S(=O)(c1ccc(N=C=S)cc1)c1ccc(N=C=S)cc1
dose: 25.0 mg/kg/injection, schedule: Q01DX005 (ip), vehicle: Klucel (hydroxypropylcellulose) (HPC)
  T/C: 112 % of control

## Clc1ccc2noc(-c3ccccc3)c2c1
[3]
  T/C: 94 % of control
[4]
  T/C: 91 % of control
dose: 200.0 mg/kg/injection, schedule: Q01DX009 (ip), vehicle: saline with Tween-80
  T/C: 98 % of control
dose: 400.0 mg/kg/injection, schedule: Q01DX009 (ip), vehicle: saline with Tween-80
  T/C: 94 % of control

## CC(C)c1cc2c(cc1O)C[C@@]1(O)CCCC(C)(C)C1CC2 (stereo partly specified)
dose: 7.0 mg/kg/injection, schedule: Q01DX005 (ip), vehicle: other
  T/C: 100 % of control
dose: 14.0 mg/kg/injection, schedule: Q01DX005 (ip), vehicle: other
  T/C: 100 % of control
dose: 28.0 mg/kg/injection, schedule: Q01DX005 (ip), vehicle: other
  T/C: 104 % of control
dose: 56.0 mg/kg/injection, schedule: Q01DX005 (ip), vehicle: other
  T/C: 99 % of control

## CCCCNc1ccc(-c2c(N)nc(N)nc2CC)cc1N
dose: 100.0 mg/kg/injection, schedule: Q01DX001 (ip), vehicle: Klucel (hydroxypropylcellulose) (HPC)
  T/C: 101 % of control
dose: 200.0 mg/kg/injection, schedule: Q01DX001 (ip), vehicle: Klucel (hydroxypropylcellulose) (HPC)
  T/C: 93 % of control
dose: 400.0 mg/kg/injection, schedule: Q01DX001 (ip), vehicle: Klucel (hydroxypropylcellulose) (HPC)
  T/C: 94 % of control

## O=C(/C=C/c1ccccc1)Oc1cc([N+](=O)[O-])cc([N+](=O)[O-])c1
dose: 100.0 mg/kg/injection, schedule: Q04DX002 (ip), vehicle: saline with Tween-80
  T/C: 112 % of control
dose: 200.0 mg/kg/injection, schedule: Q04DX002 (ip), vehicle: saline with Tween-80
  T/C: 105 % of control

Source: PubChem BioAssay AID330 (DTP/NCI, 2004)
